Test results: ChEMBL document CHEMBL1201861, “Genomics of Drug Sensitity in Cancer screening data, Wellcome Trust Sanger Institute”

Tests used:
5637 = test: cells; format: functional, cell-based; conditions: Homo sapiens
Description: SANGER: Inhibition of human 5637 cell growth in a cell viability assay.

ChaGo-K-1 = test: cells; format: functional, cell-based; conditions: Homo sapiens;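 note: growth inhibition of ChaGo-K-1 cells, read out with a cell viability assay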
Description: SANGER: Inhibition of human ChaGo-K-1 cell growth in a cell viability assay.

SR = test: cells; format: functional, cell-based; conditions: Homo sapiens
Description: SANGER: Inhibition of human SR cell growth in a cell viability assay.

JEG-3 = test: cells; format: functional, cell-based; conditions: Homo sapiens;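 note: growth inhibition of human JEG-3 cells, read out with a cell viability assay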
Description: SANGER: Inhibition of human JEG-3 cell growth in a cell viability assay.

NCI-H719 = test: cells; format: functional, cell-based; conditions: Homo sapiens;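 note: growth inhibition of the cultured cell line, read out with a viability assay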
Description: SANGER: Inhibition of human NCI-H719 cell growth in a cell viability assay.

SAOS-2 = test: cells; format: functional, cell-based; conditions: Homo sapiens;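 note: growth inhibition of human Saos-2 cells determined by a cell viability assay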
Description: SANGER: Inhibition of human Saos-2 cell growth in a cell viability assay.

MC-CAR = test: cells; format: functional, cell-based; conditions: Homo sapiens;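 note: growth inhibition of the human MC-CAR cell line, read out by a cell viability assay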
Description: SANGER: Inhibition of human MC-CAR cell growth in a cell viability assay.

SW756 = test: cells; format: functional, cell-based; conditions: Homo sapiens;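 note: growth inhibition of human SW756 cells, read out with a cell viability assay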
Description: SANGER: Inhibition of human SW756 cell growth in a cell viability assay.

NCI-H727 = test: cells; format: functional, cell-based; conditions: Homo sapiens;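 note: growth inhibition of human NCI-H727 cells, read out with a cell viability assay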
Description: SANGER: Inhibition of human NCI-H727 cell growth in a cell viability assay.

CAL-12T = test: cells; format: functional, cell-based, Homo sapiens; conditions: Homo sapiens, CAL-12T;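 note: growth inhibition of human CAL-12T cells, read out with a cell viability assay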
Description: SANGER: Inhibition of human CAL-12T cell growth in a cell viability assay.

IST-SL2 = test: cells; format: functional, cell-based; conditions: Homo sapiens;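 note: growth inhibition of human IST-SL2 cells, read out by a cell viability assay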
Description: SANGER: Inhibition of human IST-SL2 cell growth in a cell viability assay.

GAMG = test: cells; format: functional, cell-based; conditions: Homo sapiens;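 note: cell growth inhibition measured by a viability assay in the GAMG human cell line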
Description: SANGER: Inhibition of human GAMG cell growth in a cell viability assay.

SW837 = test: cells; format: functional, cell-based; conditions: Homo sapiens;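 note: growth inhibition of SW837 cells, determined with a cell viability assay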
Description: SANGER: Inhibition of human SW837 cell growth in a cell viability assay.

HTC-C3 = test: cells; format: functional, cell-based; conditions: Homo sapiens;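 note: inhibition of cell growth, read out with a cell viability assay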
Description: SANGER: Inhibition of human HTC-C3 cell growth in a cell viability assay.

TE-15 = test: cells; format: functional, cell-based; conditions: Homo sapiens;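 note: cell viability readout of growth inhibition in TE-15 cells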
Description: SANGER: Inhibition of human TE-15 cell growth in a cell viability assay.

NCCIT = test: SANGER: Inhibition of human NCCIT cell growth in a cell viability assay.; format: functional, cell-based
SBC-5 = test: cells; format: functional, cell-based; conditions: Homo sapiens;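 note: cell viability assay read-out, IC50 is the concentration that inhibits growth of the cells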
Description: SANGER: Inhibition of human SBC-5 cell growth in a cell viability assay.

IGROV-1 = test: cells; format: functional, cell-based; conditions: Homo sapiens;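 note: reduction of IGROV-1 cell growth, read out with a viability assay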
Description: SANGER: Inhibition of human IGROV-1 cell growth in a cell viability assay.

NCI-H1437 = test: cells; format: functional, cell-based; conditions: Homo sapiens;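 note: growth inhibition of human NCI-H1437 cells, read out by a cell viability assay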
Description: SANGER: Inhibition of human NCI-H1437 cell growth in a cell viability assay.

PC-3 = test: cells; format: functional, cell-based; conditions: Homo sapiens;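 note: cell viability assay measuring growth inhibition of PC-3 cells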
Description: SANGER: Inhibition of human PC-3 cell growth in a cell viability assay.

NCI-H630 = test: cells; format: functional, cell-based; conditions: Homo sapiens;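 note: growth inhibition of NCI-H630 cells, read out with a cell viability assay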
Description: SANGER: Inhibition of human NCI-H630 cell growth in a cell viability assay.

A673 = test: cells; format: functional, cell-based; conditions: Homo sapiens;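 note: growth inhibition of human A673 cells, read out through a cell viability assay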
Description: SANGER: Inhibition of human A673 cell growth in a cell viability assay.

MKN-28 = test: cells; format: functional, cell-based; conditions: Homo sapiens;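 note: cell viability assay read-out, IC50 reflects suppression of growth of human MKN-28 cells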
Description: SANGER: Inhibition of human MKN28 cell growth in a cell viability assay.

MDA-MB-453 = test: cells; format: functional, cell-based; conditions: Homo sapiens
Description: SANGER: Inhibition of human MDA-MB-453 cell growth in a cell viability assay.

JIYOYE = test: cells; format: functional, cell-based; conditions: Homo sapiens
Description: SANGER: Inhibition of human JiyoyeP-2003 cell growth in a cell viability assay.

NCI-H1522 = test: cells; format: functional, cell-based; conditions: Homo sapiens;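 note: growth inhibition of NCI-H1522 cells, read out with a cell viability assay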
Description: SANGER: Inhibition of human NCI-H1522 cell growth in a cell viability assay.

SW1463 = test: cells; format: functional, cell-based; conditions: Homo sapiens;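 note: growth inhibition of SW1463 cells, determined with a cell viability assay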
Description: SANGER: Inhibition of human SW1463 cell growth in a cell viability assay.

EFM-19 = test: cells; format: functional, cell-based; conditions: Homo sapiens;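 note: growth inhibition of human EFM-19 cells, measured in a cell viability assay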
Description: SANGER: Inhibition of human EFM-19 cell growth in a cell viability assay.

NUGC-3 = test: cells; format: functional, cell-based; conditions: Homo sapiens;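 note: growth inhibition of human NUGC-3 cells, read out with a cell viability assay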
Description: SANGER: Inhibition of human NUGC-3 cell growth in a cell viability assay.

CAL-148 = test: cells; format: functional, cell-based; conditions: Homo sapiens
Description: SANGER: Inhibition of human CAL-148 cell growth in a cell viability assay.

SW1573 = test: cells; format: functional, cell-based; conditions: Homo sapiens;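 note: growth inhibition of SW1573 cells, read out with a cell viability assay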
Description: SANGER: Inhibition of human SW1573 cell growth in a cell viability assay.

AGS = test: cells; format: functional, cell-based; conditions: Homo sapiens;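 note: growth inhibition of AGS cells, determined with a cell viability assay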
Description: SANGER: Inhibition of human AGS cell growth in a cell viability assay.

G-401 = test: cells; format: functional, cell-based; conditions: Homo sapiens
Description: SANGER: Inhibition of human G-401 cell growth in a cell viability assay.

YT = test: cells; format: functional, cell-based; conditions: Homo sapiens
Description: SANGER: Inhibition of human YT cell growth in a cell viability assay.

NCI-H522 = test: cells; format: functional, cell-based; conditions: Homo sapiens;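 note: cell viability assay measuring growth inhibition of human NCI-H522 cells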
Description: SANGER: Inhibition of human NCI-H522 cell growth in a cell viability assay.

MHH-CALL-2 = test: cells; format: functional, cell-based; conditions: Homo sapiens;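 note: growth inhibition of the cell line, read out in a cell viability assay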
Description: SANGER: Inhibition of human MHH-CALL-2 cell growth in a cell viability assay.

Raji = test: cells; format: functional, cell-based; conditions: Homo sapiens;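 note: cell viability assay measuring inhibition of Raji cell growth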
Description: SANGER: Inhibition of human Raji cell growth in a cell viability assay.

KP-4 = test: cells; format: functional, cell-based; conditions: Homo sapiens;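 note: human KP-4 cells, with growth inhibition read out through a cell viability assay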
Description: SANGER: Inhibition of human KP-4 cell growth in a cell viability assay.

Detroit 562 = test: cells; format: functional, cell-based; conditions: Homo sapiens;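 note: growth inhibition of human Detroit 562 cells, read out by a cell viability assay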
Description: SANGER: Inhibition of human Detroit562 cell growth in a cell viability assay.

SKG-IIIa = test: cells; format: functional, cell-based; conditions: Homo sapiens;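 note: cell growth inhibition, read out with a cell viability assay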
Description: SANGER: Inhibition of human SKG-IIIa cell growth in a cell viability assay.

BCPAP = test: cells; format: functional, cell-based; conditions: Homo sapiens;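 note: growth inhibition of BCPAP cells, read out in a cell viability assay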
Description: SANGER: Inhibition of human BCPAP cell growth in a cell viability assay.

NCI-H187 = test: cells; format: functional, cell-based; conditions: Homo sapiens;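 note: growth inhibition of NCI-H187 cells, read out as cell viability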
Description: SANGER: Inhibition of human NCI-H187 cell growth in a cell viability assay.

MHH-ES-1 = test: cells; format: functional, cell-based; conditions: Homo sapiens
Description: SANGER: Inhibition of human MHH-ES-1 cell growth in a cell viability assay.

VM-CUB-1 = test: cells; format: functional, cell-based; conditions: Homo sapiens;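 note: cell viability assay measuring growth inhibition of the human VM-CUB-1 cell line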
Description: SANGER: Inhibition of human VM-CUB-1 cell growth in a cell viability assay.

NCI-H358 = test: cells; format: functional, cell-based; conditions: Homo sapiens;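 note: growth inhibition of NCI-H358 human cells, read out with a cell viability assay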
Description: SANGER: Inhibition of human NCI-H358 cell growth in a cell viability assay.

HOS = test: cells; format: functional, cell-based; conditions: Homo sapiens;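 note: growth inhibition of human HOS cells, read out with a cell viability assay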
Description: SANGER: Inhibition of human HOS cell growth in a cell viability assay.

MONO-MAC-6 = test: cells; format: functional, cell-based; conditions: Homo sapiens;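 note: cell viability assay measuring growth inhibition of human MONO-MAC-6 cells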
Description: SANGER: Inhibition of human MONO-MAC-6 cell growth in a cell viability assay.

T-24 = test: cells; format: functional, cell-based; conditions: Homo sapiens;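 note: growth inhibition of T-24 cells, read out with a cell viability assay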
Description: SANGER: Inhibition of human T-24 cell growth in a cell viability assay.

HCC1937 = test: cells; format: functional, cell-based; conditions: Homo sapiens;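 note: growth inhibition measured with a cell viability read-out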
Description: SANGER: Inhibition of human HCC1937 cell growth in a cell viability assay.

MFE-280 = test: cells; format: functional, cell-based; conditions: Homo sapiens;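 note: growth inhibition of MFE-280 cells, determined with a cell viability readout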
Description: SANGER: Inhibition of human MFE-280 cell growth in a cell viability assay.

NCI-H1755 = test: cells; format: functional, cell-based; conditions: Homo sapiens;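 note: cell viability readout used to measure growth inhibition of NCI-H1755 cells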
Description: SANGER: Inhibition of human NCI-H1755 cell growth in a cell viability assay.

NCI-H1793 = test: cells; format: functional, cell-based; conditions: Homo sapiens;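 note: cell growth inhibition, read out by a cell viability assay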
Description: SANGER: Inhibition of human NCI-H1793 cell growth in a cell viability assay.

MRK-nu-1 = test: cells; format: functional, cell-based; conditions: Homo sapiens;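 note: cell viability assay measuring growth suppression of human MRK-nu-1 cells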
Description: SANGER: Inhibition of human MRK-nu-1 cell growth in a cell viability assay.

NCI-H2030 = test: cells; format: functional, cell-based; conditions: Homo sapiens;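 note: growth inhibition of human NCI-H2030 cells, read out by a cell viability assay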
Description: SANGER: Inhibition of human NCI-H2030 cell growth in a cell viability assay.

SCC-25 = test: cells; format: functional, cell-based; conditions: Homo sapiens;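 note: growth inhibition of SCC-25 cells, measured with a cell viability assay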
Description: SANGER: Inhibition of human SCC-25 cell growth in a cell viability assay.

BHT-101 = test: cells; format: functional, cell-based; conditions: Homo sapiens
Description: SANGER: Inhibition of human BHT-101 cell growth in a cell viability assay.

HN = test: cells; format: functional, cell-based; conditions: Homo sapiens
Description: SANGER: Inhibition of human HN cell growth in a cell viability assay.

NCI-H2081 = test: cells; format: functional, cell-based; conditions: Homo sapiens;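 note: growth inhibition of human NCI-H2081 cells, read out with a cell viability assay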
Description: SANGER: Inhibition of human NCI-H2081 cell growth in a cell viability assay.

NCI-H1417 = test: cells; format: functional, cell-based; conditions: Homo sapiens;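 note: human NCI-H1417 cells, growth inhibition determined with a cell viability readout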
Description: SANGER: Inhibition of human NCI-H1417 cell growth in a cell viability assay.

NCI-H520 = test: cells; format: functional, cell-based; conditions: Homo sapiens;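 note: growth inhibition of NCI-H520 cells, measured by a cell viability assay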
Description: SANGER: Inhibition of human NCI-H520 cell growth in a cell viability assay.

KYSE-180 = test: cells; format: functional, cell-based; conditions: Homo sapiens;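 note: growth inhibition of KYSE-180 cells, read out with a cell viability assay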
Description: SANGER: Inhibition of human KYSE-180 cell growth in a cell viability assay.

FTC-133 = test: cells; format: functional, cell-based; conditions: Homo sapiens
EB2 = test: cells; format: functional, cell-based; conditions: Homo sapiens
Description: SANGER: Inhibition of human EB2 cell growth in a cell viability assay.

HMV-2 cell line = test: cells; format: functional, cell-based; conditions: Homo sapiens
Description: SANGER: Inhibition of human HMV-II cell growth in a cell viability assay.

KYSE-150 cell line = test: cells; format: functional, cell-based; conditions: Homo sapiens
Description: SANGER: Inhibition of human KYSE-150 cell growth in a cell viability assay.

Measured: IC50

O=c1[nH]c2ccccc2n1C1CCN(Cc2ccc(-c3nc4cc5[nH]cnc5cc4nc3-c3ccccc3)cc2)CC1
1.06 µM: NCI-H1755
1.13 µM: NCI-H520
0.723 µM: IGROV-1
1.94 µM: NCI-H2030
0.564 µM: EFM-19
> 2.56 µM: all other assays above
